Columns and labels:
HCT116 cells = experiment: Inhibition of cancer cell proliferation (MTT, GIC50); type: cell-based; conditions: Homo sapiens, HCT-116, 48 hours incubation
Experimental: HCT116 cells derived from human colorectal cancer were used, and an effect of a biguanide derivative on the inhibition of cancer cell proliferation was confirmed by measuring a concentration value (cell growth inhibition concentration, GIC50) at which 50% of the cell growth was inhibited using a 3-(4,5-dimethylthiazol-2-yl)-2,5-diphenytetrazolium bromide (MTT) reagent.
First, HCT116 cells were put on a 96-well plate and cultured in a DMEM medium containing 10% bovine serum for 24 hours to each have cell count of approximately 5000. Subsequently, to obtain the GIC50 value of each compound, 100 μM (or 200 μM), 25 μM, 6.25 μM, 1.56 μM or 0.39 μM of the compound was treated to each culture medium and then incubated for 48 hours. To confirm living cells after treatment with the compound, MTT was added to each culture medium and further incubated for 3 hours. Generated formazane crystal was dissolved using dimethyl sulfoxide (DMSO) and absorbance of the solution was measured at 560 nm. After the 48-hour incubation, a ratio of a cell count cultured on a well plate not treated with the compound to a cell count on a well plate treated with compounds synthesized in the examples was indicated as cell viability (%) according to each administered concentration. A cell viability curve was plotted using the cell viability (%), and the calculated concentration value (GIC50) of the compound, at which 50% of the growth was inhibited was, to confirm an effect on the inhibition of cancer cell proliferation.

[1] = system: 5′-AMP-activated protein kinase (AMPK); experiment: AMPK activation (AMPKα Thr172 phosphorylation immunoassay) in MCF7 cells; type: cell-based, human; conditions: MCF7 cells; for AMPK Activation (phosphorylated AMPKα Thr172): 50 μM compound, 24 hours; for fold induction at 50 µM: Homo sapiens, 24 h, 50 μM vs. 0 (cells without compound)
Experimental: MCF7 cells derived from human breast cancer cells were used, and an effect of a biguanide derivative on 5′-AMP-activated protein kinase (AMPK) activation was confirmed using an AMPKα immunoassay kit (Invitrogen, catalog No. KHO0651).
The MCF7 cells were put on a 6-well plate and incubated in a DMEM medium containing 10% fetal bovine serum in an incubator to which 5% CO2 was supplied to have a cell count of approximately 5×10^5. 50 μM of derivatives synthesized in the examples were treated to the each culture medium, and the cells were incubated for 24 hours. Subsequently, the cells were lysed by a method presented in the operation manual of the AMPKα immunoassay kit, and 20 μg of cell lysates were yielded through protein assay. A degree of phosphorylation of an AMPKα threonine 172nd residue (Thr172) from the cell lysates were confirmed according to a method presented in the operation manual of the AMPKα immunoassay kit to thereby obtain results.
In addition, an experiment was performed in the same manner as described in Experimental Example 2 using metformin as a control group, and the results of an effect on AMPK activation were compared to the effect on AMPK activation when 1 mM metformin was treated.

Compound	IC50 (HCT116 cells) [µM]	melting point [°C]	AMPK Activation (phosphorylated AMPKα Thr172) [1]	fold induction at 50 µM [1]
COC(=O)CCNC(=N)NC(=N)N(C)C.Cl [Example 22, N1,N1-dimethyl-N5-(methoxycarbonylethyl)biguanide Hydrochloride]	> 200	100 to 102	3.2	0.6
CCCNC(=N)NC(=N)NCCc1ccccc1.Cl [Example 13, N1-(phenethyl)-N5-propyl Biguanide Hydrochloride]	47.6	126 to 128	36.2	6.8
CN(C)C(=N)NC(=N)NC1CCCCCC1.Cl [Example 23, N1,N1-dimethyl-N5-cycloheptyl Biguanide Hydrochloride]	> 200	132 to 133	5.4	1
CN(C)C(=N)NC(=N)NCCc1ccccc1.Cl [Example 29, N1,N1-dimethyl-N5-(phenethyl) Biguanide Hydrochloride]	> 200	155 to 157	14.7	2.8
Cl.N=C(NCc1ccccc1)NC(=N)NCc1cccnc1 [Example 12, N1-benzyl-N5-(pyridine-3-yl)methyl Biguanide Hydrochloride]	> 200	138 to 140	7.8	1.5

Second part, led by results:

IC50 (HCT116 cells) [µM]	melting point [°C]	Compound	AMPK Activation (phosphorylated AMPKα Thr172) [1]	fold induction at 50 µM [1]
> 200	115 to 117	CCN(CC)C(=N)NC(=N)N(C)C1CCCCC1.Cl [Example 36, N1,N1-diethyl-N5,N5-(cyclohexyl)(methyl) Biguanide Hydrochloride]	4.5	0.8
> 100	191 to 192	CCCN(CCC)C(=N)NC(=N)Nc1cccc2cnccc12.Cl [Example 33, N1,N1-dipropyl-N5-(isoquinoline-5-yl) Biguanide Hydrochloride]	11.3	1.7
> 100	141 to 142	CN(Cc1ccccc1)C(=N)NC(=N)N(C)Cc1ccccc1.Cl [Example 40, N1,N1,N5,N5-bis((benzyl)(methyl)) Biguanide Hydrochloride]	11.3	1.7
28.3	219 to 220	CCN(CC)C(=N)NC(=N)Nc1cccc(Cl)c1.Cl [Example 30, N1,N1-diethyl-N5-(3-chloro)phenyl Biguanide Hydrochloride]	19.3	7.7

— patent US10376480B2, “Biguanide derivative, a preparation method thereof, and a pharmaceutical composition containing the biguanide derivative as an active ingredient” (Immunomet Therapeutics Inc., priority 2010, dated 2019)
